Measured values as given in ChEMBL document CHEMBL5143732 (J Med Chem, 2022).
In brackets after ≈: the same amount, converted by molar mass. Activity calls are given as the source filed them. The calls are words filed in the database; no cut-off is given here.

Legend:
[1] = Observed MRT infinity in ICR (CD-1) mouse at 1 mg/kg, iv measured upto 24 hrs; assay type: ADME, organism-based; conditions: in vivo
[2] = Elimination half life in ICR (CD-1) mouse at 1 mg/kg, iv measured upto 24 hrs; assay type: ADME, organism-based; conditions: in vivo, read-out: beta t1/2 (converted)
[3] = Hemolytic activity in human RBC measured after 1 hr; assay type: toxicity, cell-based, Erythrocyte; conditions: red blood cells (erythrocytes)
[4] = Observed clearance in ICR (CD-1) mouse at 1 mg/kg, iv measured upto 24 hrs; assay type: ADME, organism-based; set-up: dose 1 mg/kg, time < 24 hrs, route iv; conditions: in vivo
[5] = Observed volume of distribution at steady state in ICR (CD-1) mouse at 1 mg/kg, iv measured upto 24 hrs; assay type: ADME, organism-based; conditions: in vivo, read-out: Vdss
Candida parapsilosis = assay: Antifungal activity against Candida parapsilosis assessed as inhibition of fungal growth measured after 48 hrs by CLSI based agar dilution method; assay type: functional; conditions: Lodderomyces parapsilosis
Candida albicans [6] = assay: Antifungal activity against Candida albicans assessed as inhibition of fungal growth measured after 48 hrs by CLSI based agar dilution method; assay type: functional
[7] = AUClast in ICR (CD-1) mouse at 1 mg/kg, iv measured upto 24 hrs; assay type: ADME, organism-based; set-up: dose 1 mg/kg, time < 24 hrs, route iv; conditions: in vivo; for AUC(0-t) at 24 h: ICR (CD-1)
[8] = Acute toxicity in iv dosed SPF ICR mouse assessed as maximum tolerated measured for 14 days; assay type: organism-based; conditions: in vivo, dose 30 mg/kg, time 14 day
Candida albicans [9] = assay: Antifungal activity against Candida albicans ATTCC 14053 infected in SPF Kunming mouse assessed as increase in mouse survival pre-infected for 1 hr followed by compound addition and measured after 7 to 14 days; assay type: functional; conditions: time 7-14 day
Candida tropicalis = assay: Antifungal activity against Candida tropicalis assessed as inhibition of fungal growth measured after 48 hrs by CLSI based agar dilution method; assay type: functional
[10] = Observed AUC infinity in ICR (CD-1) mouse at 1 mg/kg, iv measured upto 24 hrs; assay type: ADME, organism-based; set-up: dose 1 mg/kg, time < 24 hrs, route iv; conditions: in vivo; for AUC(0-inf): ICR (CD-1)
Cryptococcus neoformans = assay: Antifungal activity against Cryptococcus neoformans ATCC 32609 assessed as inhibition of fungal growth measured after 48 hrs by CLSI based agar dilution method; assay type: functional
Pichia kudriavzevii [11] = assay: Antifungal activity against Candida krusei ATCC 6258 assessed as inhibition of fungal growth measured after 48 hrs by CLSI based agar dilution method; assay type: functional
Pichia kudriavzevii [12] = assay: Antifungal activity against Candida krusei assessed as inhibition of fungal growth measured after 48 hrs by CLSI based agar dilution method; assay type: functional
Lipid bilayer [13] = assay: Induction of membrane disruption in inner membrane mimic POPC/ergosterol (10:1) large unilamellar vesicles assessed as change in morphology by transmission electron microscopic analysis; assay type: cell membranes
Lipid bilayer [14] = assay: Induction of membrane disruption in inner membrane mimic POPC/ergosterol (10:1) large unilamellar vesicles assessed as change in liposomal integrity by transmission electron microscopic analysis; assay type: cell membranes
[15] = Therapeutic index ratio of MTD for acute toxicity in iv dosed SPF ICR mouse to ED50 for antifungal activity against Candida albicans ATTCC 14053 infected in SPF kunming mouse; assay type: organism-based; conditions: in vivo, read-out: TI
[16] = route iv, dose 1 mg/kg, time < 24 hrs, read-out: CL

SMILES	MRT inf [1] [h]	half-life [2] [h]	HC50 at 1 h [3] [µM]	Vd [5] [L/kg]	MIC (Candida parapsilosis) [µg/mL]	MIC (Candida albicans [6]) [µg/mL]	MIC (Candida tropicalis) [µg/mL]	clearance [4, 16] [mL/min/kg]	MIC (Cryptococcus neoformans) [µg/mL]	AUC(0-t) at 24 h [7] [ng·h/mL]	MIC (Pichia kudriavzevii [11]) [µg/mL]	AUC(0-inf) [10] [ng·h/mL]	MIC (Pichia kudriavzevii [12]) [µg/mL]	also measured
C[C@@H]1[C@H](O)[C@@H](C)/C=C/C=C/C=C/C=C/C=C/C=C/C=C/[C@H](O[C@@H]2O[C@H](C)[C@@H](O)[C@H](N)[C@@H]2O)C[C@@H]2O[C@](O)(C[C@@H](O)C[C@@H](O)[C@H](O)CC[C@@H](O)C[C@@H](O)CC(=O)O[C@H]1C)C[C@H](O)[C@H]2C(=O)O [AMPHOTERICIN B]	28.8	19.2	4.13	6.42	0.25 (≈ 0.271 µM)	0.5 (≈ 0.541 µM)	1 (≈ 1.08 µM)	–	–	–	–	–	–	clearance ([4]; iv, 1 mg/kg, read-out: AUC): 4.02 mL/min/kg; AUClast ([7]; 24 h): 2488 ng·h/mL; MTD at 336 h [8]: 2.01 mg/kg; ED50 (Candida albicans [9]): 1.08 mg/kg; AUC ([10]; 24 h): 4476 ng·h/mL
C[C@@H]1[C@H](O)[C@@H](C)/C=C/C=C/C=C/C=C/C=C/C=C/C=C/[C@H](O[C@@H]2O[C@H](C)[C@@H](O)[C@H](NC(=O)CN)[C@@H]2O)C[C@@H]2O[C@](O)(C[C@@H](O)C[C@@H](O)[C@H](O)CC[C@@H](O)C[C@@H](O)CC(=O)O[C@H]1C)C[C@H](O)[C@H]2C(=O)NCCN	24.9	18.2	18.2	1.37	0.015 (≈ 0.0147 µM)	< 0.008	0.03 (≈ 0.0293 µM)	0.913	< 0.008	11500	0.5 (≈ 0.489 µM)	18300	0.06 (≈ 0.0586 µM)	–
CNCC(=O)N[C@@H]1[C@H](O)[C@H](O[C@H]2/C=C/C=C/C=C/C=C/C=C/C=C/C=C/[C@H](C)[C@@H](O)[C@@H](C)[C@H](C)OC(=O)C[C@H](O)C[C@H](O)CC[C@@H](O)[C@H](O)C[C@H](O)C[C@]3(O)C[C@H](O)[C@@H](C(=O)N4CCN(C(C)(C)CO)CC4)[C@H](C2)O3)O[C@H](C)[C@H]1O	25.4	16.4	50.7	1.44	1 (≈ 0.881 µM)	1 (≈ 0.881 µM)	1 (≈ 0.881 µM)	0.95	1 (≈ 0.881 µM)	10700	4 (≈ 3.52 µM)	17700	1 (≈ 0.881 µM)	–
CNCC(=O)N[C@@H]1[C@H](O)[C@H](O[C@H]2/C=C/C=C/C=C/C=C/C=C/C=C/C=C/[C@H](C)[C@@H](O)[C@@H](C)[C@H](C)OC(=O)C[C@H](O)C[C@H](O)CC[C@@H](O)[C@H](O)C[C@H](O)C[C@]3(O)C[C@H](O)[C@@H](C(=O)NCCN)[C@H](C2)O3)O[C@H](C)[C@H]1O	–	–	–	–	–	–	–	–	–	–	–	–	–	Activity (Lipid bilayer [13]): Active; Activity (Lipid bilayer [14]): Active
C[C@@H]1[C@H](O)[C@@H](C)/C=C/C=C/C=C/C=C/C=C/C=C/C=C/[C@H](O[C@@H]2O[C@H](C)[C@@H](O)[C@H](NC(=O)CCN)[C@@H]2O)C[C@@H]2O[C@](O)(C[C@@H](O)C[C@@H](O)[C@H](O)CC[C@@H](O)C[C@@H](O)CC(=O)O[C@H]1C)C[C@H](O)[C@H]2C(=O)N1CCN(CCO)CC1	15.3	11.2	24.4	2.48	0.5 (≈ 0.452 µM)	0.5 (≈ 0.452 µM)	1 (≈ 0.903 µM)	2.7	0.25 (≈ 0.226 µM)	4890	8 (≈ 7.22 µM)	6210	0.5 (≈ 0.452 µM)	–
CC(=O)NNC(=O)[C@H]1[C@@H]2C[C@@H](O[C@@H]3O[C@H](C)[C@@H](O)[C@H](NC(=O)CN)[C@@H]3O)/C=C/C=C/C=C/C=C/C=C/C=C/C=C/[C@H](C)[C@@H](O)[C@@H](C)[C@H](C)OC(=O)C[C@H](O)C[C@H](O)CC[C@@H](O)[C@H](O)C[C@H](O)C[C@](O)(C[C@@H]1O)O2	–	–	6	–	2 (≈ 1.93 µM)	0.06 (≈ 0.0578 µM)	2 (≈ 1.93 µM)	–	0.125 (≈ 0.121 µM)	–	1 (≈ 0.964 µM)	–	0.125 (≈ 0.121 µM)	–
CNCC(=O)N[C@@H]1[C@H](O)[C@H](O[C@H]2/C=C/C=C/C=C/C=C/C=C/C=C/C=C/[C@H](C)[C@@H](O)[C@@H](C)[C@H](C)OC(=O)C[C@H](O)C[C@H](O)CC[C@@H](O)[C@H](O)C[C@H](O)C[C@]3(O)C[C@H](O)[C@@H](C(=O)N4CCC(O)CC4)[C@H](C2)O3)O[C@H](C)[C@H]1O	–	–	6.3	–	2 (≈ 1.85 µM)	0.5 (≈ 0.464 µM)	2 (≈ 1.85 µM)	–	0.25 (≈ 0.232 µM)	–	4 (≈ 3.71 µM)	–	2 (≈ 1.85 µM)	–
C[C@@H]1[C@H](O)[C@@H](C)/C=C/C=C/C=C/C=C/C=C/C=C/C=C/[C@H](O[C@@H]2O[C@H](C)[C@@H](O)[C@H](N)[C@@H]2O)C[C@@H]2O[C@](O)(C[C@@H](O)C[C@@H](O)[C@H](O)CC[C@@H](O)C[C@@H](O)CC(=O)O[C@H]1C)C[C@H](O)[C@H]2C(=O)NCCN	25.3	17.5	–	1.33	–	–	–	0.896	–	11600	–	18900	–	selectivity ratio [15]: 23.4; MTD at 336 h [8]: 7.5 mg/kg; ED50 (Candida albicans [9]): 0.32 mg/kg
CNCC(=O)N[C@@H]1[C@H](O)[C@H](O[C@H]2/C=C/C=C/C=C/C=C/C=C/C=C/C=C/[C@H](C)[C@@H](O)[C@@H](C)[C@H](C)OC(=O)C[C@H](O)C[C@H](O)CC[C@@H](O)[C@H](O)C[C@H](O)C[C@]3(O)C[C@H](O)[C@@H](C(=O)N4CCN(CCO)CC4)[C@H](C2)O3)O[C@H](C)[C@H]1O	–	–	15.1	–	0.5 (≈ 0.452 µM)	0.125 (≈ 0.113 µM)	0.5 (≈ 0.452 µM)	–	0.03 (≈ 0.0271 µM)	–	2 (≈ 1.81 µM)	–	0.25 (≈ 0.226 µM)	–
CNCC(=O)N[C@@H]1[C@H](O)[C@H](O[C@H]2/C=C/C=C/C=C/C=C/C=C/C=C/C=C/[C@H](C)[C@@H](O)[C@@H](C)[C@H](C)OC(=O)C[C@H](O)C[C@H](O)CC[C@@H](O)[C@H](O)C[C@H](O)C[C@]3(O)C[C@H](O)[C@@H](C(=O)N4CCN(CC(C)(C)O)CC4)[C@H](C2)O3)O[C@H](C)[C@H]1O	–	–	27.7	–	4 (≈ 3.52 µM)	0.25 (≈ 0.22 µM)	1 (≈ 0.881 µM)	–	0.5 (≈ 0.44 µM)	–	16 (≈ 14.1 µM)	–	0.5 (≈ 0.44 µM)	–
CNCC(=O)N[C@@H]1[C@H](O)[C@H](O[C@H]2/C=C/C=C/C=C/C=C/C=C/C=C/C=C/[C@H](C)[C@@H](O)[C@@H](C)[C@H](C)OC(=O)C[C@H](O)C[C@H](O)CC[C@@H](O)[C@H](O)C[C@H](O)C[C@]3(O)C[C@H](O)[C@@H](C(=O)N4CCN(CCCO)CC4)[C@H](C2)O3)O[C@H](C)[C@H]1O	–	–	19.5	–	0.5 (≈ 0.446 µM)	0.5 (≈ 0.446 µM)	0.5 (≈ 0.446 µM)	–	0.125 (≈ 0.111 µM)	–	2 (≈ 1.78 µM)	–	0.5 (≈ 0.446 µM)	–
C[C@@H]1[C@H](O)[C@@H](C)/C=C/C=C/C=C/C=C/C=C/C=C/C=C/[C@H](O[C@@H]2O[C@H](C)[C@@H](O)[C@H](NC(=O)CN)[C@@H]2O)C[C@@H]2O[C@](O)(C[C@@H](O)C[C@@H](O)[C@H](O)CC[C@@H](O)C[C@@H](O)CC(=O)O[C@H]1C)C[C@H](O)[C@H]2C(=O)N1CCN(CCO)CC1	10.5	7.72	30.6	3.06	0.5 (≈ 0.457 µM)	0.25 (≈ 0.229 µM)	0.25 (≈ 0.229 µM)	4.85	0.25 (≈ 0.229 µM)	3060	8 (≈ 7.32 µM)	3440	0.25 (≈ 0.229 µM)	–
